Legend:
HIVNL4-3 in MT-2 cells [1] = experiment: Release of reverse transcriptase into the culture supernatant; type: cell-based, HIV; conditions: for Release of reverse transcriptase into the culture supernatant, Day 2: mean of triplicate infections (SD), microM: DPA119 24, DPA52 25, DPA53 9, DPA54 17, DPA55 4, DPA56 8, DPA121 25, virus control 46,029; for Release of reverse transcriptase into the culture supernatant, Day 4 / Release of reverse transcriptase into the culture supernatant, Day 6: mean of triplicate infections; for Release of reverse transcriptase into the culture supernatant, Day 4: virus control 928,112; for Release of reverse transcriptase into the culture supernatant, Day 6: virus control 1,078,741
Text: The disclosed conjugates also reduce the amount of reverse transcriptase (RT) released into the cell culture supernatant upon in vitro cell culture experiments (Table 14 below). […] It is possible that even though the cells are positive for HIV, they are making much fewer unspliced transcripts, and thus the virion release into the media remains suppressed. […] Anti-HIV activities can be routinely checked by measuring the percentage of cells positive for HIV antigens using immunofluorescence assay (IFA) and for the release of pelletable reverse transcriptase (RT) into the supernatant. For these assays, 500,000 MT-2 cells in 1 ml of media were added to the wells of a 24 well tissue culture plate. Next, 0.5 ml of 4× concentrated compound was added to triplicate wells of the plate. The cells and compounds were incubated for 1 hr at 37 C. Finally, 0.5 ml of HIVNL4-3, produced in H9 cells (a CD4+ lymphoblastoid cell line), 100,000 cpm of RT activity per well, was added to each well. Virus control wells contained no compounds. This inoculum is at a multiplicity of infection less than 1. […] Next, cells were resuspended in the media and 0.5 mls of the total remaining volume was removed for IFA. Cells were combined from their triplicate infections, pelleted, and the enriched cells were air-dried onto glass slides. The dried cells were fixed in acetonemethanol (50:50). After fixing, cells were stained with HIV immunoglobulin, washed in PBS, and counter-stained with FITC-conjugated goat and human IgG. Slides were washed in PBS and the percentage of HIV-positive cells was determined by epifluorescence (Robinson et al. […] The supernatants from each well were precipitated at 4 C overnight in a solution including 30% polyethylene glycol. After precipitation, precipitate was lysed in a solution containing Triton X100, Tris buffer, and DTT. RT activity of each aliquot was determined as incorporation of 3H-dTTP into a poly rA-oligo dT template. After a one hour assay at 37 C, the incorporated dTTP was precipitated onto a ZetaProbe (BioRad) membrane. Slots were excised and placed into liquid scintillation cocktail. After overnight incubation, counts per minute for each sample was determined on a beta counter. Results were calculated as cpm/ml of original culture supernatant (Robinson et al.

HIVNL4-3 in MT-2 cells [2] = experiment: HIV antigen synthesis in treated cells, immunofluorescence assay (IFA); type: cell-based; conditions: for percentage of cells positive for HIV antigens, Day 2: MT-2 cells, microM: DPA119 24, DPA52 25, DPA53 9, DPA54 17, DPA55 4, DPA56 8, DPA121 25, virus control 15%; for percentage of cells positive for HIV antigens, Day 4 / percentage of cells positive for HIV antigens, Day 6: same concentrations, virus control 100%
Method: Anti-HIV activities can be routinely checked by measuring the percentage of cells positive for HIV antigens using immunofluorescence assay (IFA) and for the release of pelletable reverse transcriptase (RT) into the supernatant. For these assays, 500,000 MT-2 cells in 1 ml of media were added to the wells of a 24 well tissue culture plate. Next, 0.5 ml of 4× concentrated compound was added to triplicate wells of the plate. The cells and compounds were incubated for 1 hr at 37 C. Finally, 0.5 ml of HIVNL4-3, produced in H9 cells (a CD4+ lymphoblastoid cell line), 100,000 cpm of RT activity per well, was added to each well. Virus control wells contained no compounds. This inoculum is at a multiplicity of infection less than 1. On days 2, 4, and 6, 0.75 mls of supernatants were removed and placed into individual microfuge tubes for RT assay. Next, cells were resuspended in the media and 0.5 mls of the total remaining volume was removed for IFA. Cells were combined from their triplicate infections, pelleted, and the enriched cells were air-dried onto glass slides. The dried cells were fixed in acetonemethanol (50:50). After fixing, cells were stained with HIV immunoglobulin, washed in PBS, and counter-stained with FITC-conjugated goat and human IgG. Slides were washed in PBS and the percentage of HIV-positive cells was determined by epifluorescence (Robinson et al. J Acquire Immune Defic Syndr 2:33-42, 1989).

HIV-1 TAR RNA = HIV-1 TAR RNA competition FRET binding assay (Tat peptide probe); conditions: 100 nM TAR RNA, 100 nM Tat peptide, 25° C., 60 min
Method: Before used, HIV-1 TAR RNA (5′-GGC AGA UCUGAG CCU GGG AGC UCU CUG CC-3′, Thermo Scientific) in 10 μM batch in sterile water was heated to 95° C. for 4.5 min, and then cooled rapidly in ice bath for 5 min. This snap-cooling causes the RNA to adopt the kinetically favored hairpin rather than thermodynamically favored duplexes.
The relative affinity of each polyamine for HIV-1 TAR RNA was determined using Fluorescence Resonance Energy Transfer (FRET)-based competitive binding assay with a fluorescein-labeled HIV-1 Tat peptide as described in the literature. The fluorescence experiments were performed with a Spectra Max Fluorimeter (Molecular Devices) at 25° C., with excitation and emission wavelengths of 495 and 570 nm, respectively. All samples were prepared in 96 well plates in 1×TK buffer (50 mM Tris, 20 mM KCl, pH=7.4) with 0.1% Trixton-100 (Sigma).
To a solution of 100 nM HIV-1 TAR RNA and 100 nM fluorescein-labeled HIV-1 Tat peptide, appropriate concentrations (0 nM to 100 μM) of the antagonists were added at 25° C.; total volume of the incubation solution was 80 μL. After 60 min, fluorescence changes of the sample solution were determined by the Spectra Max Fluorimeter Detector.

TAR RNA = experiment: UV melting of TAR RNA in presence of ligands (Tm, ΔTm); type: binding, HIV-1; conditions: Melting point stabilization of HIV-TAR RNA by Neo Neo dimers; Table 11
Method: The reactions were done in the presence of 10 mM sodium cacodylate, 0.5 mM EDTA, 0.1 mM MgCl2 pH 7.0. The heating rate was 0.3° C./min.
UV melting studies of TAR were performed in the presence and absence of various ligands (FIG. 13).

## NCC1O[C@H](OC2C(N)C[C@@H](N)C(O)[C@H]2O[C@@H]2O[C@H](Cn3cc(-c4ccc(-c5cn(C[C@H]6O[C@@H](O[C@H]7C(O[C@H]8OC(CN)C(O)[C@H](O)C8N)C(N)C[C@@H](N)C7O)[C@@H](O)C6O[C@H]6O[C@@H](CN)C(O)C(O)C6N)nn5)cc4)nn3)C(O[C@H]3O[C@@H](CN)C(O)C(O)C3N)[C@@H]2O)C(N)[C@@H](O)C1O (some centres unmarked) [DPA 53]
cells
  5% Toxicity microM: 17 µM
HIVNL4-3 in MT-2 cells [1]
  Release of reverse transcriptase into the culture supernatant, Day 2: 8,880 (1,373) cpm/ml
  Release of reverse transcriptase into the culture supernatant, Day 4: 45,539 cpm/ml
  Release of reverse transcriptase into the culture supernatant, Day 6: 221,445 cpm/ml
HIVNL4-3 in MT-2 cells [2]
  percentage of cells positive for HIV antigens, Day 2: 2%
  percentage of cells positive for HIV antigens, Day 4: 40%
  percentage of cells positive for HIV antigens, Day 6: 100%

## CN[C@@H]1C[C@H](N)[C@@H](O)[C@H](OC2O[C@H](CO)[C@H](O)[C@@H]3OC4(O[C@H](C(N)CO)[C@H](O)[C@H](O)[C@H]4O)O[C@@H]23)[C@H]1O (some centres unmarked) [DPA 504, hygromycin, reference compound]
HIV-1 TAR RNA; Table 18
  IC50: > 500 µM

## NCC1O[C@H](OC2C(N)C[C@@H](N)C(O)[C@H]2O[C@@H]2O[C@H](Cn3cc(COCCCCCCCCCCCCOCc4cn(C[C@H]5O[C@@H](O[C@H]6C(O[C@H]7OC(CN)C(O)[C@H](O)C7N)C(N)C[C@@H](N)C6O)[C@@H](O)C5O[C@H]5O[C@@H](CN)C(O)C(O)C5N)nn4)nn3)C(O[C@H]3O[C@@H](CN)C(O)C(O)C3N)[C@@H]2O)C(N)[C@@H](O)C1O (some centres unmarked) [DPA 60]
HIV-1 TAR RNA; Table 17
  IC50: 0.067 ± 0.009 µM
TAR RNA
  ΔTm: 3.24 °C

## NC[C@H]1O[C@H](O[C@H]2[C@H](O)[C@@H](O[C@H]3O[C@H](CO)[C@@H](O)[C@H](N)[C@H]3O)[C@H](N)C[C@@H]2N)[C@H](O)[C@@H](O)[C@@H]1O [DPA 503, kanamycin, reference compound]
HIV-1 TAR RNA; Table 18
  IC50: 95.4 ± 20.4 µM

## C/C(CCc1cn(C[C@H]2O[C@@H](O[C@H]3C(O[C@H]4OC(CN)C(O)[C@H](O)C4N)C(N)C[C@@H](N)C3O)[C@@H](O)C2O[C@H]2O[C@@H](CN)C(O)C(O)C2N)nn1)=C(/C)CCc1cn(C[C@H]2O[C@@H](O[C@H]3C(O[C@H]4OC(CN)C(O)[C@H](O)C4N)C(N)C[C@@H](N)C3O)[C@@H](O)C2O[C@H]2O[C@@H](CN)C(O)C(O)C2N)nn1 (some centres unmarked) [DPA 55]
cells
  5% Toxicity microM: 8 µM
HIVNL4-3 in MT-2 cells [1]
  Release of reverse transcriptase into the culture supernatant, Day 2: 20,072 (3,748) cpm/ml
  Release of reverse transcriptase into the culture supernatant, Day 4: 107,933 cpm/ml
  Release of reverse transcriptase into the culture supernatant, Day 6: 305,277 cpm/ml
HIVNL4-3 in MT-2 cells [2]
  percentage of cells positive for HIV antigens, Day 2: 3-5%
  percentage of cells positive for HIV antigens, Day 4: 30%
  percentage of cells positive for HIV antigens, Day 6: 100%

## NCC1O[C@H](OC2C(N)C[C@@H](N)C(O)[C@H]2O[C@@H]2O[C@H](Cn3cc(CCCCc4cn(C[C@H]5O[C@@H](O[C@H]6C(O[C@H]7OC(CN)C(O)[C@H](O)C7N)C(N)C[C@@H](N)C6O)[C@@H](O)C5O[C@H]5O[C@@H](CN)C(O)C(O)C5N)nn4)nn3)C(O[C@H]3O[C@@H](CN)C(O)C(O)C3N)[C@@H]2O)C(N)[C@@H](O)C1O (some centres unmarked) [DPA 54]
cells
  5% Toxicity microM: 69 µM
HIVNL4-3 in MT-2 cells [1]
  Release of reverse transcriptase into the culture supernatant, Day 2: 14,805 (1,309) cpm/ml
  Release of reverse transcriptase into the culture supernatant, Day 4: 165,301 cpm/ml
  Release of reverse transcriptase into the culture supernatant, Day 6: 427,475 cpm/ml
HIVNL4-3 in MT-2 cells [2]
  percentage of cells positive for HIV antigens, Day 2: 3-5%
  percentage of cells positive for HIV antigens, Day 4: 80%
  percentage of cells positive for HIV antigens, Day 6: 100%

## lividomycin [DPA 507, reference compound]
HIV-1 TAR RNA; Table 18
  IC50: 92.5 ± 21.9 µM

Reference: patent publication US9492554B2, “Methods and compositions related to viral inhibition” (Clemson University Research Foundation (CURF), priority 2009, dated 2016)
